Source: patent US20250049803A1, “COMBINATION OF A TASK1/3 CHANNEL BLOCKER WITH A NOREPINEPHRINE REUPTAKE INHIBITOR FOR THE TREATMENT OF SLEEP APNEA” (priority 2021, published 2025)

Assays:
[1] = system: upper airway collapsibility; assay: pig model of obstructive sleep apnea (OSA): collapse of the upper respiratory tract under negative pressure; assay type: in vivo, German Landrace pigs; set-up: efficacy of the dose on upper airway collapsibility: dose or concentration left out as unconfirmed
Source text: The therapeutic potential of the combination of a TASK1/3 channel blocker with a norepinephrine reuptake inhibitor according to the present invention in sleep apnea can be assessed preclinically in a pig model of obstructive sleep apnea (OSA).
German Landrace pigs are used for the model. The pigs are anaesthetized and tracheotomized. Two tracheal cannulas are inserted into the trachea, one into the rostral part and the other into the caudal part of the trachea. Using a connection piece, the rostral cannula is connected to a tube to the negative pressure device and to the distal tracheal cannula. The distal tracheal cannula is additionally connected to a tube with an open end to atmosphere via a connection piece that served for free tracheal breathing, circumventing the upper airway. By appropriate opening and clamping of those tubes breathing can be switched from nasal breathing to breathing through the caudal tracheal cannula, circumventing the upper airway, and the (isolated) upper airway can be connected to the negative pressure device, causing airflow in the inspiratory direction.
At certain points in time, the collapsibility of the upper respiratory tract is tested by having the pig breathe via the caudal cannula and applying negative pressures of −50, −100 and −150 cm water head (cm H2O) to the upper respiratory tract. This causes the upper respiratory tract to collapse, which manifests itself in an interruption of the airflow and a pressure drop in the tube system. This test is conducted prior to the administration of the test substance and at certain intervals after the administration of the test substance. An appropriately effective test substance can prevent this collapse of the respiratory tract in the inspiratory phase.

[2] = plasma concentrations of atomoxetine in the OSA pig model; assay type: in vivo, pigs; details: atomoxetine dose used in the combination (i.v. bolus 20 μg/kg + infusion 12.5 μg/kg/h), FIG. 3
[3] = intranasal 0.3 μg at 0 min, alone, time 0 min (time of administration)
[4] = intranasal 0.3 μg at 0 min, alone, time 10 min
[5] = intranasal 0.3 μg at 0 min, alone, time 30 min
[6] = intranasal 0.3 μg at 0 min, alone, time 60 min
[7] = intranasal 0.3 μg at 0 min, alone, time 90 min
[8] = atomoxetine i.v. bolus 20 μg/kg + infusion 12.5 μg/kg/h for four hours from 0 min, time 0 min (time of administration)
[9] = atomoxetine i.v. bolus 20 μg/kg + infusion 12.5 μg/kg/h for four hours from 0 min, time 10 min
[10] = atomoxetine i.v. bolus 20 μg/kg + infusion 12.5 μg/kg/h for four hours from 0 min, time 30 min
[11] = atomoxetine i.v. bolus 20 μg/kg + infusion 12.5 μg/kg/h for four hours from 0 min, time 60 min
[12] = atomoxetine i.v. bolus 20 μg/kg + infusion 12.5 μg/kg/h for four hours from 0 min, time 90 min (time of nasal application of TASK1/3 channel blocker)

For `COc1ccc(Cl)c(C(=O)N2C3CCC2CN(Cc2c(-c4ccc(C(C)C)cc4)nc4ncccn24)C3)n1` [(3-Chloro-6-methoxypyridin-2-yl)(3-{[2-(4-isopropylphenyl)imidazo[1,2-a]pyrimidin-3-yl]methyl}-3,8-diazabicyclo[3.2.1]oct-8-yl)methanone], the “efficacy of the dose on upper airway collapsibility” value ([1]; TASK1/TASK3 channel blocker alone) was “non effective dose”, the “Percent pigs without collaps −50 cm H2O, %” value [1, 3] was 0% and the “Percent pigs without collaps −50 cm H2O, %” value [1, 4] was 33%. The “Percent pigs without collaps −50 cm H2O, %” value [1, 5] was 0%, the “Percent pigs without collaps −50 cm H2O, %” value [1, 6] was 0% and the “Percent pigs without collaps −50 cm H2O, %” value [1, 7] was 0%. For the same compound, the “Percent pigs without collaps −100 cm H2O, %” value [1, 3] was 0%, the “Percent pigs without collaps −100 cm H2O, %” value [1, 4] was 33% and the “Percent pigs without collaps −100 cm H2O, %” value [1, 5] was 0%. The “Percent pigs without collaps −100 cm H2O, %” value [1, 6] was 0%, the “Percent pigs without collaps −100 cm H2O, %” value [1, 7] was 0% and the “Percent pigs without collaps −150 cm H2O, %” value [1, 3] was 0%. The “Percent pigs without collaps −150 cm H2O, %” value [1, 4] was 0%, the “Percent pigs without collaps −150 cm H2O, %” value [1, 5] was 0% and the “Percent pigs without collaps −150 cm H2O, %” value [1, 6] was 0%. The “Percent pigs without collaps −150 cm H2O, %” value [1, 7] was 0%.

For `CNCC[C@@H](Oc1ccccc1C)c1ccccc1` [atomoxetine, Atomoxetine], the plasma concentrations [2] was “about 100 nM”, the “inhibition of upper airway collapsibility” value ([1]; atomoxetine alone, i.v. bolus 20 μg/kg + infusion 12.5 μg/kg/h, 30 min after bolus injection and start of infusion) was “inhibited only at a negative pressure of −50 and −100 cm head” and the “inhibition of upper airway collapsibility” value ([1]; atomoxetine alone, i.v. bolus 20 μg/kg + infusion 12.5 μg/kg/h, 60 min after administration) was “inhibited only at a negative pressure of −50 cm head”. The upper airway collapsibility ([1]; atomoxetine alone, i.v. bolus 20 μg/kg + infusion 12.5 μg/kg/h, 90 min after bolus injection and start of infusion) was “induced at all negative pressures”, the “time points at which upper airway collapsibility was inhibited at all three negative pressures of −50, −100 and −150 cm head (cm H2O) in all pigs” value ([1]; atomoxetine alone, i.v. bolus 20 μg/kg followed by infusion 12.5 μg/kg/h for four hours) was “at no time point” and the “Percent pigs without collaps −50 cm H2O, %” value [1, 8] was 0%. The “Percent pigs without collaps −50 cm H2O, %” value [1, 9] was 67%, the “Percent pigs without collaps −50 cm H2O, %” value [1, 10] was 100% and the “Percent pigs without collaps −50 cm H2O, %” value [1, 11] was 100%. For the same compound, the “Percent pigs without collaps −50 cm H2O, %” value [1, 12] was 0%, the “Percent pigs without collaps −100 cm H2O, %” value [1, 8] was 0% and the “Percent pigs without collaps −100 cm H2O, %” value [1, 9] was 0%. For the same compound, the “Percent pigs without collaps −100 cm H2O, %” value [1, 10] was 100%, the “Percent pigs without collaps −100 cm H2O, %” value [1, 11] was 0% and the “Percent pigs without collaps −100 cm H2O, %” value [1, 12] was 0%. The “Percent pigs without collaps −150 cm H2O, %” value [1, 8] was 0%, the “Percent pigs without collaps −150 cm H2O, %” value [1, 9] was 0% and the “Percent pigs without collaps −150 cm H2O, %” value [1, 10] was 0%. For the same compound, the “Percent pigs without collaps −150 cm H2O, %” value [1, 11] was 0% and the “Percent pigs without collaps −150 cm H2O, %” value [1, 12] was 0%.
